Test results reported in patent US4970206A, “Pyroglutamic acid esters used as dermal penetration enhancers for drugs” (Merck & Co., Inc., priority 1989, dated 1990).
Where two headings read alike, the source gives them in different places. Values belong to the compound of their own block, whether it stands above or below them.

How the values were obtained:
[1] = test system: skin (dorsal surface) of fuzzy rats; experiment: Skin Irritation Study (modified Draize, 3-day occlusive dermal application); type: in vivo; set-up: key: modified Draize index, 0-8 (erythema 0-4 + edema 0-4); details: 3 DAY occlusion, 50 mg over 2 cm^2, maximum 8; for Primary Irritation Index (PII), T0-T72 hrs: irritation index ± SD (n)
Experimental: Fuzzy rats (Temple University) 150 to 200 g were used to study the dermal irritancy as the neat compounds. Test preparations (50 mg) were applied to circular gauze pads 1 mm thick and 16 mm in diameter, and affixed to the animals' dorsal surface with occlusive adhesive film (Adhesive Plaster for Patch Test, Kanebo, Ltd., Osaka, Japan). The occlusive dressings were removed after 3 or 7 days. Treated skin areas were then evaluated according to a modified Draize scoring method, and the irritation index was evaluated for each test site. The first or "primary irritation index" (PII) was an average value reflecting irritation both immediately after dressing removal, and 72 hours later. The "secondary irritation index" (SII) was determined 7 days after dressing removal. The maximum possible PII or SII was 8 with a total possible score of 4 erythema, and a total possible score of 4 for edema. A PII or SII less than or equal to 2 indicated a mild irritant, a PII or SII greater than 2 but less than or equal to 6 indicated a moderate irritant, and a PII greater than 6 indicated a severe irritant as shown in Table 1 below: […]

[2] = In vitro diffusion cell permeation through shed snake skin (Example 4); type: in vitro ADME, Elaphae obsolete (black rat snake); details: 32°; for flux of indomethacin: pH 7.2
Experimental: (§1) In the examples given below, the permeation enhancement was determined using an in vitro diffusion cell procedure. The molts of adult Elaphae obsolete (black rat snake) was used as the model for stratum corneum membrane (R. Ibuki, Ph.D. Thesis, University of Kansas, 1985). The shed snake skin has great similarities to human skin in terms of thickness, composition of constituents and structure and has been proposed as the most suitable model for human stratum corneum for permeability studies.
(§2) Glass diffusion cells consisting of a donor and receptor cells separated by the shed snake skin membrane were assembled using circular O-ring joints held together by spring clamps. The exposed membrane surface area of the diffusion cell measured 1.8 cm^2. Before being mounted in the diffusion cell approximately 25 mg of an ointment containing the therapeutic agent and the penetration enhancer was carefully applied to the membrane and was spread over the desired area. The receptor side was filled with approximately 8.5 ml of buffer solution consisting of 1.5×10^-1 M NaCl, 5×10^-4 NaH2 PO4 and 2.0×10^-4 M Na2 HPO4 adjusted to pH 7.2 with NaOH. The diffusion cell was immersed vertically in a water bath maintained at 32°±1° C. The receptor cell was stirred constantly with a magnetic stirrer. To determine the amount of compound penetrated through the snake skin membrane from the upper chamber, 0.2 ml samples were withdrawn at varying intervals from the receptor chamber using a syringe. An equal amount of fresh buffer was replenished during sampling. The concentration of drug penetrated in each diffusion cell was measured using high pressure liquid chromatography. The results reported for each experiment are the average values from 5 replicate diffusion cells.
The ointments used for the experiments contained varying concentrations of the drug and penetration enhancing agent. The drug was dispersed in the enhancer and this was then mixed with white petrolatum USP using a vortex mixer around 55° C. The ointments were kept in a water bath at 32°±1° C. for 1 day before use in in vitro studies. See Tables II and III below for the results of penetration enhancement effects.

[3] = type: in vitro ADME, Elaphae obsolata (black rat snake); details: n = 5; for Flux of 2,3-dihydro-5-hydroxy-6-(o-hydroxymethylcinnamyl)benzofuran ± SD / % of 2,3-dihydro-5-hydroxy-6-(o-hydroxymethylcinnamyl)benzofuran delivered in 48 hrs ± SD: 1% (w/w) drug with 15% (w/w) enhancer; for Flux of 2,3-dihydro-5-hydroxy-6-(o-hydroxymethylcinnamyl)benzofuran ± SD: 32°
Experimental: The transport of 2,3-dihydro-5-hydroxy-6-(o-hydroxymethylcinnamyl)benzofuran, through shed snake skin, which has been reported to be a good model for human stratum corneaum in terms of thickness, compositional features, structure and permeability, was measured in the presence of decyl, dodecyl and oleyl esters of L-pyroglutamic acid used as penetration enhancers.
Because of the poor aqueous solubility of 2,3-dihydro 5-hydroxy-6-(o-hydroxymethylcinnamyl)benzofuran (<0.0002 mg/ml at 32°), 20% propyleneglycol in isotonic pH 7.2 phosphate buffer was used as the receptor medium. […] A weighed amount of a petrolatum ointment (30-35 mg) containing 1% (w/w) of 2,3-dihydro-5-hydroxy-6-(o-hydroxymethylcinnamyl)benzofuran with or without 15% (w/w) of the permeation enhancer was applied to 1.76 cm^2 area of shed skin of adult Elaphae obsolata (black rat snake), and held between the donor and receptor compartments of a diffusion cell by O-rings. […] The diffusion cells were maintained at 32°±1° C. The amount of drug diffused into the receptor chamber was measured by HPLC using acetonitrile-water (2:3) at a flow rate of 1 ml/min as mobile phase, a C18 column and a UV detector set at […]. The results (Table IV below) are averages of five diffusion cells for each experiment.

[4] = Permeation enhancement of enalapril, clonidine and acyclovir using pyroglutamic esters; type: in vitro ADME, Elaphae obsolete (black rat snake); details: for Flux of acyclovir ± SD / % of acyclovir delivered in 48 hrs ± SD: acyclovir with enhancer; for Flux of clonidine ± SD / % of clonidine delivered in 48 hrs ± SD: clonidine with enhancer; for Flux of enalapril ± SD / % of enalapril delivered in 48 hrs ± SD: enalapril with enhancer; for % delivered in 48 hrs ± SD: no enhancer
Experimental: as §1
as §2, with “The results reported for each experiment are the average values from 5 replicate diffusion cells.” left out

Rat plasma hydrolysis = type: in vitro ADME; details: 37° C., decanol generated, by GC, read-out: t 1/2 of enzymatic hydrolysis in rat plasma
Experimental: Freshly prepared rat plasma (2 ml) was mixed with decyl pyroglutamate (0.6 mg) and was maintained at 37° C. Aliquots were removed at different time intervals and vortexed with heptane (1 ml) containing dodecanol as an internal standard. The decanol produced by enzymatic hydrolysis was assayed by gas chromatography on a 6'×2 mm (id) column packed with OV-101 (methylsilicone) on gas chrom Q (100-120 mesh), programmed from 125° to 175° C.

Aqueous solubility = type: physicochemical; details: water, at 32°
[5] = weight ratio of enhancer/indomethacin 15.0
[6] = dodecyl pyroglutamate as enhancer, weight ratio of enhancer/drug 15
[7] = dodecyl pyroglutamate, weight ratio of enhancer/drug 0 (no enhancer)

SMILES: CCCCCCCCCCCCOC(=O)[C@@H]1CCC(=O)N1 [Dodecyl pyroglutamate]
Primary Irritation Index (PII), T0-T72 hrs [1]: 0
Secondary Irritation Index (SII) at 7 days [1]: 0
flux of indomethacin [2, 5]: 0.630 μg/cm^2 /hr
Flux of 2,3-dihydro-5-hydroxy-6-(o-hydroxymethylcinnamyl)benzofuran ± SD [3]: 0.61 ± 0.04 μg/cm^2 /hr
% of 2,3-dihydro-5-hydroxy-6-(o-hydroxymethylcinnamyl)benzofuran delivered in 48 hrs ± SD ([3]; 48 hrs): 13.4 ± 1.5%
Flux of acyclovir ± SD [4]: 0.072 ± 0.04 μg/cm^2 /hr
% of acyclovir delivered in 48 hrs ± SD [4]: 0.26 ± 0.15%
Flux of clonidine ± SD [4]: 0.63 ± 0.21 μg/cm^2 /hr
% of clonidine delivered in 48 hrs ± SD [4]: 13.2 ± 0.6%
Flux of enalapril ± SD [4]: 0.51 ± 0.09 μg/cm^2 /hr
% of enalapril delivered in 48 hrs ± SD [4]: 9.9 ± 2.7%

SMILES: CCCCCCCC/C=C\CCCCCCCCOC(=O)[C@@H]1CCC(=O)N1 [Oleyl pyroglutamate]
Primary Irritation Index (PII), T0-T72 hrs [1]: 0.1 ± 0.3
Secondary Irritation Index (SII) at 7 days [1]: 0
flux of indomethacin [2, 5]: 0.450 μg/cm^2 /hr
Flux of 2,3-dihydro-5-hydroxy-6-(o-hydroxymethylcinnamyl)benzofuran ± SD [3]: 0.95 ± 0.09 μg/cm^2 /hr
% of 2,3-dihydro-5-hydroxy-6-(o-hydroxymethylcinnamyl)benzofuran delivered in 48 hrs ± SD ([3]; 48 hrs): 21.7 ± 1.1%
Flux of clonidine ± SD [4]: 0.26 ± 0.15 μg/cm^2 /hr
% of clonidine delivered in 48 hrs ± SD [4]: 4.4 ± 1.4%
Flux of enalapril ± SD [4]: 0.92 ± 0.22 μg/cm^2 /hr
% of enalapril delivered in 48 hrs ± SD [4]: 18.7 ± 5.4%

SMILES: Nc1nc2c(ncn2COCCO)c(=O)[nH]1 [Acyclovir, reference compound]
% delivered in 48 hrs ± SD ([4]; acyclovir): not detectable

SMILES: CC(C)NCC(O)COc1cccc2ccccc12 (centres unmarked) [Propranolol]
flux of drug [2, 6]: 7.410 μg/cm^2 /hr
flux of drug [2, 7]: 3.680 μg/cm^2 /hr

SMILES: CCCCCCCCCCCCN1CCCCCC1=O [Azone, reference compound]
Primary Irritation Index (PII), T0-T72 hrs [1]: 4.0 ± 1.9
Secondary Irritation Index (SII) at 7 days [1]: 0

SMILES: C[C@]12CCC(=O)C=C1CC[C@@H]1[C@@H]2[C@@H](O)C[C@@]2(C)[C@H]1CC[C@]2(O)C(=O)CO [Hydrocortisone]
flux of drug [2, 6]: 0.338 μg/cm^2 /hr
flux of drug [2, 7]: Not detectable

SMILES: CCCCCCCCCCOC(=O)[C@@H]1CCC(=O)N1 [Decyl pyroglutamate, Decyl Pyroglutamate]
half-life (Rat plasma hydrolysis): 1.7 min
Primary Irritation Index (PII), T0-T72 hrs [1]: 0.9 ± 1.1
Secondary Irritation Index (SII) at 7 days [1]: 0
flux of indomethacin [2, 5]: 0.477 μg/cm^2 /hr
Flux of 2,3-dihydro-5-hydroxy-6-(o-hydroxymethylcinnamyl)benzofuran ± SD [3]: 0.70 ± 0.06 μg/cm^2 /hr
% of 2,3-dihydro-5-hydroxy-6-(o-hydroxymethylcinnamyl)benzofuran delivered in 48 hrs ± SD ([3]; 48 hrs): 16.1 ± 3.0%
Flux of acyclovir ± SD [4]: 0.063 ± 0.01 μg/cm^2 /hr
% of acyclovir delivered in 48 hrs ± SD [4]: 0.25 ± 0.03%
Flux of clonidine ± SD [4]: 0.31 ± 0.13 μg/cm^2 /hr
% of clonidine delivered in 48 hrs ± SD [4]: 8.1 ± 2.1%
Flux of enalapril ± SD [4]: 0.15 ± 0.01 μg/cm^2 /hr
% of enalapril delivered in 48 hrs ± SD [4]: 4.3 ± 0.9%

SMILES: Clc1cccc(Cl)c1N=C1NCCN1 [Clonidine, reference compound]
% delivered in 48 hrs ± SD ([4]; clonidine, n = 12): 1.1 ± 0.3%

SMILES: CC(C)=CCCC(C)=CCCC(C)=CCOC(=O)[C@@H]1CCC(=O)N1 [Farnesyl pyroglutamate]
Primary Irritation Index (PII), T0-T72 hrs [1]: 0
Secondary Irritation Index (SII) at 7 days [1]: 0
flux of indomethacin [2, 5]: 0.317 μg/cm^2 /hr

SMILES: OCc1ccccc1C=CCc1cc2c(cc1O)CCO2 [2,3-dihydro-5-hydroxy-6-(o-hydroxymethylcinnamyl)benzofuran, reference compound]
Flux ± SD ([3]; 1% (w/w) drug, no enhancer): 0.19 μg/cm^2 /hr
% delivered in 48 hrs ± SD ([3]; 1% (w/w) drug, no enhancer, 48 hrs): 4.24 ± 0.53%
solubility (Aqueous solubility): < 0.2 µg/mL

flux of indomethacin ([2]; no enhancer): non-detectable
SMILES: COc1ccc2c(c1)c(CC(=O)O)c(C)n2C(=O)c1ccc(Cl)cc1 [Indomethacin, indomethacin]
